The text below walks through data of US9127044B2, “Cyclic depsipeptides” (NOVARTIS AG, priority 2007, dated 2015).

One experiment deals with human kallikrein 7 (Homo sapiens, UniProt P49862). The experiment can be described thus: Kallikrein-7 inhibitory activity in vitro (fluorescence-quenched substrate). The format is biochemical. As to the method:
(§1) IC50 for human kallikrein can be measured using the fluorescence-quenched substrate Ac-Glu-Asp(EDANS)-Lys-Pro-Ale-Leu-Phe^Arg-Leu-Gly-Lys(DABCYL)-Glu-NH2 (where ^ indicates the scissile bond, identified by MS analysis) which can be purchased from Biosyntan (Berlin, Germany). Enzymatic reactions are conducted in 50 mM sodium citrate buffer at pH 5.6 containing 150 mM NaCl and 0.05% (w/v) CHAPS. For the determination of IC50 values the assay is performed at room temperature in 384-well plates. All final assay volumes are 30 μl. Test compounds are dissolved in 90% (v/v) DMSO/water and diluted in water (containing 0.05% (w/v) CHAPS) to 3-times the desired assay concentration. The 11 final compound concentrations are: 0.3 nM, 1 nM, 3 nM, 10 nM, 30 nM, 100 nM, 300 nM, 1 μM, 3 μM, 10 μM and 30 μM. For each assay, 10 μl water/CHAPS (±test compound) are added per well, followed by 10 μl protease solution (diluted with 1.5× assay buffer). The protease concentration in final assay solution is 0.2 nM (according to the enzyme concentrations determined by the Bradford method). After 1 hour of incubation at room temperature, the reaction is started by addition of 10 μl substrate solution (substrate dissolved in 1.5× assay buffer, final concentration is 2 μM). […] The IC50 value is calculated from the plot of percentage of inhibition vs. inhibitor concentration using non-linear regression analysis software (XLfit, Vers. 4.0; ID Business Solution Ltd., Guildford, Surrey, UK).
The fluorescence-quenched substrate Ac-Glu-Asp(EDANS)-Lys-Pro-Ale-Leu-Phe^Arg-Leu-Gly-Lys(DABCYL)-Glu-NH2 (where ^ indicates the scissile bond, identified by MS analysis) is purchased from Biosyntan (Berlin, Germany) and kept as a 5 mM stock solution in DMSO at −20° C. All other chemicals are of analytical grade.
Enzymatic reactions are conducted in 50 mM sodium citrate buffer at pH 5.6 containing 150 mM NaCl and 0.05% (w/v) CHAPS.
All protein and peptide containing solutions are handled in siliconized tubes (Life Systems Design, Merenschwand, Switzerland). The compound solutions as well as the enzyme and the substrate solutions are transferred to the 384-well plates (black Cliniplate; cat. no. 95040020 Labsystems Oy, Finland) by means of a CyBi-Well 96-channel pipettor (CyBio AG, Jena, Germany).
(§2) For fluorescence intensity (FI) measurements an Ultra Evolution reader (TECAN, Maennedorf, Switzerland) is used. The instrument is equipped with a combination of a 350 nm (20 nm bandwidth) and a 500 nm (25 nm bandwidth) bandpass filter for fluorescence excitation and emission acquisition, respectively. To increase the signal:background ratio, an appropriate dichroic mirror is employed. The optical filters and the dichroic mirror are purchased from TECAN. The fluorophores in each well are excited by three flashes per measurement.
as §1, with “For” for “IC50 for human kallikrein can be measured using the fluorescence-quenched substrate Ac-Glu-Asp(EDANS)-Lys-Pro-Ale-Leu-Phe^Arg-Leu-Gly-Lys(DABCYL)-Glu-NH2 (where ^ indicates the scissile bond, identified by MS analysis) which can be purchased from Biosyntan (Berlin, Germany). Enzymatic reactions are conducted in 50 mM sodium citrate buffer at pH 5.6 containing 150 mM NaCl and 0.05% (w/v) CHAPS. For”, “volumes were” for “volumes are”, “concentration was” for “concentration is”

Experiment [1] has as its target T1, Human neutrophil elastase (Homo sapiens, UniProt P08246).
T1 construct: purchased Elastin Products Company, Inc. (EPC, Owensville, USA) SE563
T1 sequence (P08246 30-267): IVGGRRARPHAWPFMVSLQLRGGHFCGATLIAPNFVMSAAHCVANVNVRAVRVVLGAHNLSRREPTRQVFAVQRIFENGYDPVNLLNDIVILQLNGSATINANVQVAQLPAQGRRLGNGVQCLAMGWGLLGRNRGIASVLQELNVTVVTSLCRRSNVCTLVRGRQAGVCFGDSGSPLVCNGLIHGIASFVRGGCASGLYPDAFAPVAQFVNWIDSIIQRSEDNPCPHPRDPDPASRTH
The experiment can be described thus: HNE inhibitory activity in vitro (fluorescence-quenched substrate). The format is biochemical. Here is the method:
Human neutrophil elastase (cat. no. SE563) is purchased from Elastin Products Company, Inc. (EPC, Owensville, USA). The dry powder (purity >95% stated by the supplier) was dissolved in 20 mM sodium acetate buffer, pH 5.0, 50% (v/v) glycerol, and frozen at −80° C. in aliquots.
The fluorescence-quenched substrate (DABCYL-Ser-Glu-Val^Asn-Leu-Asp-Ala-Glu-Phe-EDANS, where ^ indicates the scissile bond, identified by MS analysis) was purchased from Bachem AG (Bubendorf, Switzerland), and kept as a 5 mM stock solution in DMSO at −20° C. All other chemicals were of analytical grade.
Enzymatic reactions were conducted in 100 mM Tris/HCl buffer at pH 7.5, containing 500 mM NaCl, and 0.05% (w/v) CHAPS.
All protein and peptide containing solutions are handled in siliconized tubes (Life Systems Design, Merenschwand, Switzerland).
The compound solutions as well as the enzyme and the substrate solutions are transferred to the 384-well plates (black Cliniplate; cat. no. 95040020 Labsystems Oy, Finland) by means of a CyBi-Well 96-channel pipettor (CyBio AG, Jena, Germany).
as §2

[2] abbreviates: Table 11, read-out: hKallikrein7 IC 50.
Setting [3] is: Table 11, read-out: human neutrophile elastase IC 50.

Like-named read-outs stand apart in the source and are kept apart here. *1 amine or outer side, *2 acyl side, *3 side chain or, on linkers, in order; H or OH if unused. Where a SMILES comes first, the peptide text is derived from it. Bridges are numbered along the chain shown (N, C = ends). [ ]: non-standard residue; d: D form. The star is where a group is joined. ξ: configuration not given here. X1 = O=C([C@@H]1CC[C@H](O)N1[*:1])[*:2]; NMeY = CN[C@@H](Cc1ccc(O)cc1)C(=O)O; Butanoyl(2ξ-Me) = CCC(C)C(=O)*; Ile(3ξ) = CCC(C)[C@H](N)C(=O)O; Isovaleryl = CC(C)CC(=O)*; Isobutyryl = CC(C)C(=O)*

human kallikrein 7, sequence (P49862 30-253): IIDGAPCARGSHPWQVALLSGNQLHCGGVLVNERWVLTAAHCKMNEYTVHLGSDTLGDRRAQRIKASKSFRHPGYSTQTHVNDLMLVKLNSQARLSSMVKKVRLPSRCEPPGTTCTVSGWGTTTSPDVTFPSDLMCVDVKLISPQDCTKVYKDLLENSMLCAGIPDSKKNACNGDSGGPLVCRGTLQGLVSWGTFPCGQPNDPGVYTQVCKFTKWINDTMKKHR

`CCC(C)[C@@H]1NC(=O)[C@H](Cc2ccc(O)cc2)N(C)C(=O)[C@@H](C(C)CC)N2C=CC[C@H](NC(=O)[C@H](CC(C)C)NC(=O)[C@@H](NC(=O)[C@H](CCC(N)=O)NC(=O)C(C)C)[C@@H](C)OC1=O)C2=O` (some centres unmarked) [formula V]: the IC50 at human kallikrein 7 (hKallikrein7 IC 50, Table 11) is 6 nM; in experiment [1], 60 nM.
The matching figures for `CCC(C)C1NC(=O)C(Cc2ccc(O)cc2)N(C)C(=O)C(C(C)CC)N2C(=O)C(CCC2OCC(C)C)NC(=O)C(CC(C)C)NC(=O)C(NC(=O)C(CCC(N)=O)NC(=O)C(C)C)C(C)OC1=O` (centres unmarked) [example 12]: 8.5 nM and 6 nM.
With `CCC(C)C1NC(=O)C(Cc2ccc(O)cc2)N(C)C(=O)C(C(C)CC)N2CCCC(NC(=O)C(CC(C)C)NC(=O)C(NC(=O)C(CCC#N)NC(=O)C(C)C)C(C)OC1=O)C2=O` (centres unmarked) [example 22], the results for the IC50 (at human kallikrein 7 (setting [2]); in experiment [1] (setting [3])) were 6 nM and 40 nM, respectively.
Regarding `CCC(C)[C@@H]1NC(=O)[C@H](Cc2ccc(O)cc2)N(C)C(=O)[C@H](C(C)CC)NC(=O)[C@@H]2CC[C@H](O)N2C(=O)[C@H](CC(C)C)NC(=O)[C@@H](NC(=O)[C@H](CCC(N)=O)NC(=O)C(C)C)[C@@H](C)OC1=O` (some centres unmarked) [example 46] (Isobutyryl-QTL[X1][Ile(3ξ)][NMeY][Ile(3ξ)]; ester 2-C), the IC50 was 10 nM at human kallikrein 7 (hKallikrein7 IC 50, Table 11) and 100 nM in experiment [1].
Consider `CCCCOC1CCC2NC(=O)C(CC(C)C)NC(=O)C(NC(=O)C(CCC(N)=O)NC(=O)C(C)C)C(C)OC(=O)C(C(C)CC)NC(=O)C(Cc3ccc(O)cc3)N(C)C(=O)C(C(C)CC)N1C2=O` (centres unmarked) [example 11], for which the IC50 at human kallikrein 7 (hKallikrein7 IC 50, Table 11) is 6 nM; in experiment [1], 12 nM.
The matching figures for `CCC(C)C(=O)N[C@@H](CCC(N)=O)C(=O)N[C@@H]1C(=O)N[C@@H](CC(C)C)C(=O)N[C@H]2CC=CN(C2=O)[C@H](C(C)CC)C(=O)N(C)[C@@H](Cc2ccc(O)cc2)C(=O)N[C@@H](C(C)CC)C(=O)O[C@@H]1C` (some centres unmarked) [formula IV]: 5 nM and 70 nM.
For the compound `CCC(C)[C@@H]1NC(=O)[C@H](Cc2ccc(O)cc2)N(C)C(=O)[C@H](C(C)CC)N2C(=O)C(CC[C@@H]2O)NC(=O)[C@H](CC(C)C)NC(=O)[C@@H](NC(=O)[C@H](CCC(N)=O)NC(C)=O)[C@@H](C)OC1=O` (some centres unmarked) [formula XII], the IC50 on human kallikrein 7 (hKallikrein7 IC 50, Table 11) worked out at 4 nM; in experiment [1], 50 nM.
As to `CCCOC1CCC2NC(=O)C(CC(C)C)NC(=O)C(NC(=O)C(CCC(N)=O)NC(=O)C(C)C)C(C)OC(=O)C(C(C)CC)NC(=O)C(Cc3ccc(OCc4cn(CCOCCOCCN=[N+]=[N-])nn4)cc3)N(C)C(=O)C(C(C)CC)N1C2=O` (centres unmarked) [example 45], the IC50 was found to be 2 nM at human kallikrein 7 (setting [2]) and 3 nM in experiment [1] (setting [3]).
Take `CCC(C)[C@@H]1NC(=O)[C@H](Cc2ccc(OCC(=O)NCCOCCOCC(=O)OC(C)(C)C)cc2)N(C)C(=O)[C@H](C(C)CC)N2CCCC(NC(=O)[C@H](CC(C)C)NC(=O)[C@@H](NC(=O)[C@H](CCC(N)=O)NC(=O)C(C)C)[C@@H](C)OC1=O)C2=O` (some centres unmarked) [example 44]: the values for the IC50 (at human kallikrein 7 (setting [2]); in experiment [1] (setting [3])) were 3.5 nM and 9 nM, respectively.
The matching figures for `CCCCCCCCOC(=O)Oc1ccc(C[C@H]2C(=O)N[C@@H](C(C)CC)C(=O)O[C@H](C)[C@H](NC(=O)[C@H](CCC(N)=O)NC(=O)C(C)C)C(=O)N[C@@H](CC(C)C)C(=O)NC3CCCN(C3=O)[C@@H](C(C)CC)C(=O)N2C)cc1` (some centres unmarked) [example 31]: 200 nM and 300 nM.
As to `CCC(C)[C@@H]1NC(=O)[C@H](Cc2ccc(OCC(=O)OC(C)(C)C)cc2)N(C)C(=O)[C@H](C(C)CC)N2CCCC(NC(=O)[C@H](CC(C)C)NC(=O)[C@@H](NC(=O)[C@H](CCC(N)=O)NC(=O)C(C)C)[C@@H](C)OC1=O)C2=O` (some centres unmarked) [example 33], the IC50 on human kallikrein 7 (setting [2]) was 4.5 nM; on human kallikrein 7 (read-out: IC50 for human kallikrein 7), 5 nM; in experiment [1] (setting [3]) it was 35 nM.
Regarding `CC(C)CC(=O)N[C@@H](CCC(N)=O)C(=O)N[C@@H]1C(=O)N[C@@H](CC(C)C)C(=O)N2CCC[C@@H]2C(=O)N[C@@H](Cc2ccccc2)C(=O)N[C@@H](Cc2ccc(O)cc2)C(=O)N[C@@H](C(C)C)C(=O)O[C@@H]1C` [formula X] (Isovaleryl-QTL[dP]FYV; ester 2-C), the values for the IC50 (at human kallikrein 7 (setting [2]); in experiment [1] (setting [3])) were 20 nM and 200 nM, respectively.
As for `CCCOC1CCC2NC(=O)C(CC(C)C)NC(=O)C(NC(=O)C(CCC(N)=O)NC(=O)C(C)C)C(C)OC(=O)C(C(C)CC)NC(=O)C(Cc3ccc(O)cc3)N(C)C(=O)C(C(C)CC)N1C2=O` (centres unmarked) [example 5], the IC50 on human kallikrein 7 (IC50 for human kallikrein 7) was found to be 9 nM; on human kallikrein 7 (hKallikrein7 IC 50, Table 11), 8 nM; in experiment [1], 5 nM.
With `CCC(C)C1NC(=O)C(Cc2ccc(O)cc2)N(C)C(=O)C(C(C)CC)N2CCCC(NC(=O)C(CC(C)C)NC(=O)C(NC(=O)C(CCC(N)=O)NC(=O)C(C)C)C(C)OC1=O)C2=O` (centres unmarked) [example 4], the IC50 amounted to 6 nM on human kallikrein 7 (setting [2]) and 55 nM in experiment [1] (setting [3]).
As for `CCC(C)C1NC(=O)C(Cc2ccc(O)cc2)N(C)C(=O)C(C(C)CC)N2C(=O)C(CCC2O)NC(=O)C(CC(C)C)NC(=O)C(NC(=O)C(CCC#N)NC(=O)C(C)C)C(C)OC1=O` (centres unmarked) [example 21], the figures for the IC50 (on human kallikrein 7 (setting [2]); in experiment [1] (setting [3])) were 2.5 nM and 9 nM, respectively.
Turning to `CCC(C)C1NC(=O)C(Cc2ccc(O)cc2)N(C)C(=O)C(C(C)CC)N2C(=O)C(CCC2OC)NC(=O)C(CC(C)C)NC(=O)C(NC(=O)C(CCC(=O)OC)NC(=O)C(C)C)C(C)OC1=O` (centres unmarked) [example 20], the IC50 on human kallikrein 7 (hKallikrein7 IC 50, Table 11) came out at 1.5 nM; in experiment [1], 8 nM.
In the case of `CCC(C)C(=O)N[C@@H](CCC(N)=O)C(=O)N[C@@H]1C(=O)N[C@@H](CC(C)C)C(=O)N2CCC[C@H]2C(=O)N[C@@H](C(C)CC)C(=O)N(C)[C@@H](Cc2ccc(O)cc2)C(=O)N[C@@H](C(C)CC)C(=O)O[C@@H]1C` (some centres unmarked) [formula XIV] ({Butanoyl(2ξ-Me)}-QTLP[Ile(3ξ)][NMeY][Ile(3ξ)]; ester 2-C), the IC50 at human kallikrein 7 (hKallikrein7 IC 50, Table 11) was 200 nM; in experiment [1], 2700 nM.
With `CCCOC1CCC2NC(=O)C(CC(C)C)NC(=O)C(NC(=O)C(CCC(N)=O)NC(=O)C(C)C)C(C)OC(=O)C(C(C)CC)NC(=O)C(Cc3ccc(OCC=CC(F)(F)F)cc3)N(C)C(=O)C(C(C)CC)N1C2=O` (centres unmarked) [example 36], the IC50 at human kallikrein 7 (setting [2]) is 8.5 nM; in experiment [1] (setting [3]), 3.5 nM.
